This passage reports melting point results from a melting point compilation (Tetko et al.; mined from patent text by program, amines drawn as free bases though some values may be those of a salt).

On to `COC(=O)CC/C(C)=C/Cc1c(O)c2c(c(C)c1OC)COC2=O`, for which the melting point (in general, the temperature, or range, at which the solid turns liquid) was 104 to 105 °C.

`c1ccc(CCc2cc3cccnc3[nH]2)cc1` displayed a melting point of 157 to 158 °C.

`CCN(c1ccc(Cl)cc1[N+](=O)[O-])S(=O)(=O)c1ccc(C)cc1`: the melting point lay in the range of 132 to 134 °C.

Molecule `O=C1C(=Cc2ccc(F)cc2)C2C=CC1CC2` (stereo not drawn) yielded a melting point of 85 to 86 °C.

Molecule `C[C@@H](O)[C@@H](OCc1ccccc1)[C@H](OCc1ccccc1)[C@@H](C)O` displayed a melting point of 46 to 50 °C.

In turn, `C[Si](C)(C)c1cccc(NC(=O)c2ccc(C(=O)O)cc2)c1` yielded a melting point of 211 to 213 °C.

In turn, `CCN(CC)CC1CCCCN1CC(=O)N1c2ccccc2NC(=O)c2csc(C)c21` (stereo not drawn) came in with a melting point of 147 to 149 °C.

As to `CCOC(=O)c1cc2c(cn1)[nH]c1ccc(N(C)C)cc12`, the melting point fell in the range of 220 to 221 °C.

The molecule `COc1ccc(CC(=O)c2ccccc2)cc1OC` had a melting point of 80 to 81 °C.

With `COc1ccc(COC/C(=C/c2ccc(C(=O)O)cc2)Cn2ccnc2)cc1`, the melting point was in the range of 120 to 122 °C.

The molecule `O=C(Nc1ccc(-n2nc(C(F)(F)F)cc2Br)cc1)c1ccncc1Cl` registered a melting point of 79 to 82 °C.

For `O=c1[nH]c2cccc(F)c2c(=O)n1CCCN1CC=C(c2ccc(Cl)cc2)CC1`, the melting point was in the range of 201 to 202 °C.

As for `CCCCCC1=CC(=O)C2=C(OC(C)(C)c3ccc(C)cc32)C1=O`, the melting point fell in the range of 53 to 54 °C.

`O=C(O)c1ccc(C(F)(F)F)c(N2CCOCC2)n1`: the melting point was 116 to 117 °C.

Regarding `C=C1COc2c(F)c(F)cc3c(=O)c(C(=O)OCC)cn1c23`, the melting point was in the range of 258 to 263 °C.

Regarding `C=CCN1CCNC(=O)c2cccc([N+](=O)[O-])c21`, the melting point lay within 80 to 82 °C.

In turn, `Nc1ccc(Oc2ccc(Oc3ccc(N)c(O)c3)cc2)cc1O` gave a melting point above 220 °C.

For `O=[N+]([O-])c1ccc(Cl)c(F)c1O`, the melting point was determined as 73 °C.

For the molecule `Cc1n[nH]c2c1nc(-c1ccccc1)c1cc(Br)ccc12`, the melting point lay in the range of 299 to 300 °C.

As to `O=C(c1ccccc1)c1c[nH]c2ncnc(Nc3cccc(CCO)c3)c12`, the melting point was above 300 °C.

`O=C(NS(=O)(=O)c1ccc(Oc2cccc(C(F)(F)F)c2)cc1)c1ccc(C(=O)NCCO)nc1` came in with a melting point of 167 to 168 °C.

`CCC1(c2cccc(O)c2)CNCC(C)O1` (stereo not drawn) returned a melting point of 75 to 105 °C.

The molecule `O=C(Nc1cccc(S(=O)(=O)NC2CC2)c1)c1cnn2c(C(F)(F)F)cc(-c3ccc(Cl)c(Cl)c3)nc12` yielded a melting point of 248 °C.

Regarding `COc1ccccc1N1CCN(CCCNC(=O)c2cccc3c(=O)c(C)c(-c4cccnc4)oc23)CC1`, the melting point lay within 134 to 137 °C.

For the molecule `CC(=O)N1CCN(c2cc3nc(C(C)(C)C)sc3cc2N=C=S)CC1`, the melting point was 100 to 102 °C.

Take `Cc1ncc2n1-c1ccc(Br)cc1C(c1ccccn1)=NC2`: the melting point is 189 to 190 °C.

Regarding `COc1ccc(C(=O)Cl)cc1C12CC3CC(CC(C3)C1)C2`, the melting point was in the range of 153 to 154 °C.

Consider `O=S(=O)(On1nnc2ccccc21)c1ccc(Cl)cc1`, for which the melting point lay within 94 to 95 °C.

As to `CC(Cc1ccc(C2OC(N)=NC2=O)cc1)NCC(O)c1cccc(C(F)(F)F)c1` (stereo not drawn), the melting point is 152 to 164 °C.

Molecule `Nc1nnc(-c2ccc3ncn(-c4cc(C(F)(F)F)ccc4Cl)c3c2)o1` showed a melting point of 288 to 289 °C.

For `Cn1c(C(F)(F)F)cc(=O)n(-c2cc(OCN3C(=O)CCC3=O)c(Cl)cc2F)c1=O`, the melting point lay in the range of 212 to 214 °C.

The molecule `CCCC1=C(C(=O)OCC)C(c2cccc3nsnc23)c2c[nH]nc2N1` (stereo not drawn) gave a melting point of 180 °C.

In turn, `CCCCNC(=O)c1ccc(Cl)c(-n2nc(CCCC)n(Cc3ccc(-c4ccccc4S(=O)(=O)NC(=O)c4ccccc4Cl)cc3)c2=O)c1` registered a melting point above 155 °C.

`COC(=O)c1ccc2c(c1)C(SCCCl)c1ccccc1CO2` (stereo not drawn): the melting point is 100 to 102 °C.

Molecule `CCC(C(=O)c1ccc(Cl)cc1)n1ncn(-c2ccc(N3CCN(c4nc5ccccc5s4)CC3)cc2)c1=O` (stereo not drawn) had a melting point of 162 °C.

With `COC(=O)COc1cccc2c(CNC(C)=O)coc12`, the melting point lay within 139 to 140 °C.

With `Cc1c(-c2ccccc2)c(=O)[nH]c2ccccc12`, the melting point lay in the range of 266 to 268 °C.

`COc1cc(OC)c(/C=C/S(=O)(=O)Nc2ccc(OC)c(NC(C)=O)c2)c(OC)c1`: the melting point was 296 to 298 °C.

With `CC(=NOCCOc1ccc(CC2SC(=O)NC2=O)cc1)c1ccc(NS(=O)(=O)c2ccccc2)cc1` (stereo not drawn), the melting point was 213 to 215 °C.

With `O=C(NCc1cc[nH]c(=O)c1)c1nc2ccc(F)c(OCc3ccc(F)cc3)c2c(=O)[nH]1`, the melting point lay in the range of 248 to 250 °C.

Consider `CC(C)(C)OC(=O)N1CCC(C(=O)NC2=NCCCN2)CC1`, for which the melting point was 155 to 160 °C.

Consider `Cc1oc2c(C)c(C)c(NC(=O)c3ccccc3)c(C)c2c1-c1ccc(C(C)C)cc1`, for which the melting point was in the range of 225 to 227 °C.

In the case of `COC(C)(OC)c1nn(-c2c(Cl)cc(C(F)(F)F)cc2Cl)c(N)c1SC`, the melting point was 149 °C.

`O=c1c2sccc2nc(CNc2ccccc2F)n1-c1ccccc1Cl` gave a melting point of 175 to 176 °C.

With `Cc1ccc2oc(NC(CN3CCN(Cc4ccc(Cl)c(Cl)c4)CC3)C(C)C)nc2c1` (stereo not drawn), the melting point lay in the range of 155 to 157 °C.

In the case of `CCCN1NCc2c(C3C(=O)Nc4ccc(Br)cc43)ncnc21` (stereo not drawn), the melting point is 295 to 300 °C.

As for `Cn1cnc2c(NC3CCCC3)ncnc21`, the melting point was 108 to 109 °C.

`Oc1cccc2c1C=CC=CN2` gave a melting point of 132 to 136 °C.

In turn, `O=C(O)C1(NS(=O)(=O)c2ccc3oc4cc(Br)ccc4c3c2)CCCC1` came in with a melting point of 177 to 178 °C.

For `CN(Cc1cccc2c1CN(C1CCC(=O)NC1=O)C2=O)C(=O)Nc1ccc(Cl)c(Cl)c1` (stereo not drawn), the melting point fell in the range of 275 to 277 °C.

On to `CCOC(=NC(=O)NC)N1Cc2ccccc2-c2ccccc2C1`, for which the melting point lay within 137 to 139 °C.

Molecule `COC(=O)c1nc(-c2ccc(Cl)c(OC)c2F)nc(N)c1C#C[Si](C)(C)C` registered a melting point of 126 to 128 °C.

As for `FC1(F)CCN(c2cccc3c2OCCNC3)C1`, the melting point was 54 °C.

`Cc1cc2cc(Nc3ccnc4cc(-c5ccc(CNCCCN(C)C)cc5)sc34)ccc2[nH]1` showed a melting point of 167 °C.

Turning to `Cc1cccc(Cl)c1C(=O)N[C@@H](Cc1ccc(-c2c(C(F)(F)F)n(C)c(=O)n(C)c2=O)cc1)C(=O)O`, the melting point was in the range of 243 to 247 °C.

Molecule `OCc1cccc2sc(-c3ccccc3)nc12` displayed a melting point of 116 to 117 °C.

`CCCCC(=N)NC(=O)Nc1ccc(Cl)c(Cl)c1` yielded a melting point of 177 to 179 °C.

The molecule `CC1c2cccc3c2N(CC3)c2ccccc2N1C(=O)CBr` (stereo not drawn) returned a melting point of 123 to 125 °C.

On to `CCCCC1OC(=O)c2cc(NC3CCCCC3)ccc21` (stereo not drawn), for which the melting point fell in the range of 123 to 124 °C.

As for `CN1CCOc2ccc(N)cc2C1=O`, the melting point worked out at 165 °C.

For `CCCCCCCCCCc1ccc(CNc2ccc(C(=O)OCC)cc2)cc1`, the melting point lay within 87 to 90 °C.

On to `CCNC(=O)c1sc(SC)cc1[Si](C)(C)C`, for which the melting point was 58 to 61 °C.

Take `CC(=O)c1cc(S(=O)(=O)N(C)C)ccc1O`: the melting point was 115 to 116 °C.

Consider `COc1ccccc1N1CC(=O)Nc2c(C(N)=O)nc(-c3cccc(O)c3)nc21`, for which the melting point lay within 336 to 338 °C.

Consider `O=c1[nH]c(CCCn2ccnc2)nc2ccc(Cl)cc12`, for which the melting point was in the range of 192 to 194 °C.

Turning to `CCCCCCCCCCCCn1nnnc1Cc1ccccc1`, the melting point is 50 to 51 °C.

The molecule `Cn1cnnc1C(O)(c1ccc(Cl)cc1)c1ccc2c(c1)c(CCc1cccc(Cl)c1)cc(=O)n2C` (stereo not drawn) showed a melting point of 200 °C.

The molecule `Nc1nc2c(ncn2COCCCOC(=O)c2ccccc2)c(=O)[nH]1` registered a melting point of 198 to 201 °C.

On to `Cc1nc(N2CCN(Cc3ccc(Cl)cc3)C2=O)sc1C(N)=O`, for which the melting point was above 200 °C.

Take `CNC(=O)n1nc(Oc2ccc([N+](=O)[O-])cc2C(F)(F)F)cc1C`: the melting point is 142 to 144 °C.

The molecule `COC(=O)C(C#N)(CCCN(C)CCc1ccc(OC)c(OC)c1)c1ccc(OC)c(OC)c1` (stereo not drawn) returned a melting point of 129 to 130 °C.

`OC(c1ccc(F)cc1)c1cccnc1` (stereo not drawn) came in with a melting point of 45 to 47 °C.

For `COc1ccc(C(C)C)cc1-c1cc(-c2nnnn2C2CCN(C(=O)OC(C)(C)C)C2)c(OCc2ccccc2)cc1OCc1ccccc1` (stereo not drawn), the melting point lay in the range of 73 to 77 °C.

`CS(=O)(=O)N(Cl)C(=O)c1cc(Oc2ccc(Cl)cc2Cl)ccc1[N+](=O)[O-]` came in with a melting point of 161 to 163 °C.

`CCOC(=O)c1cn(CC)c2sc(Br)cc2c1=O` yielded a melting point of 153 to 156 °C.

As to `Cc1ccc2c3c(ccc2n1)OC[C@H](CNC[C@@H]1CCc2[nH]c4ccc(F)cc4c2C1)O3`, the melting point lay in the range of 89 to 93 °C.

As for `CN(Cc1cc(C(=O)O)ccc1N)C1CCCCC1`, the melting point was 200 to 205 °C.

On to `CC(C)(C)c1nnc(NN=Cc2ccccc2)s1`, for which the melting point lay within 195 to 196 °C.

With `N#CCCn1[nH]c(C#N)cc1=O`, the melting point fell in the range of 162 to 164 °C.

As to `COc1ccc(C/N=C/C(/C=N/Cc2ccc(OC)cc2)[N+](=O)[O-])cc1`, the melting point was determined as 132 °C.

`CCCC(=O)OC1=C(c2ccc(OC)cc2)S(=O)c2ccccc2-n2cccc21` (stereo not drawn) came in with a melting point of 113 to 115 °C.

The molecule `Cc1c(C(=O)Nc2ccc(OCC(C)C)c(C#N)c2)cnn1C` registered a melting point of 160 to 162 °C.

The molecule `ClCCCCCOc1ccc(C2=C(c3ccc(OC4CCCCO4)cc3)CCCc3cc(OC4CCCCO4)ccc32)cc1` (stereo not drawn) displayed a melting point of 110 to 112 °C.

In the case of `CCOC(=O)C12CCC(=O)N1C(=O)CC2`, the melting point was 77 to 82 °C.

`O=C(O)CCc1cc2cc(Cl)ccc2n1S(=O)(=O)c1cccc2ccccc12` registered a melting point of 165 to 175 °C.

In turn, `COc1ccc(Cn2c(N)c(NC(=O)C(C)C)c(=O)[nH]c2=O)cc1OC` yielded a melting point of 207 to 210 °C.

With `CCCCc1nc2cscc2[nH]1`, the melting point came out at 118 °C.

Take `CS(=O)(=O)c1ccc(-c2ccccc2C=C2CCCCC2)cc1`: the melting point was determined as 83 °C.
